Reference: US8476197B2, “Aminopropenoates as fungicides” (priority 2009, dated 2013)
Like-named read-outs stand apart in the source and are kept apart here. Marks after values point to notes of the source that are not given here.

Row | SMILES | Log P (pH 2.7) | other results
1 | CCOC(=O)C(C#N)=C(NC(C)C(=O)NC)c1cn(C)nc1C(F)(F)F (centres unmarked) [Compound 636] | 1.95^[a] | –
2 | CCOC(=O)C(C#N)=C(NC(C)C(=O)NC)c1ccsc1Br (centres unmarked) [Compound 637] | 2.05^[a] | –
3 | CNC(=O)C(C)NC(=C(C#N)C(=O)OC)c1sc(C)nc1C(F)(F)F (centres unmarked) [Compound 638] | 1.93^[a] | –
4 | CCOC(=O)C(C#N)=C(NC(C)C(=O)NC)c1sccc1C(F)(F)F (centres unmarked) [Compound 639] | 2.25^[a] | –
5 | CCOC(=O)C(C#N)=C(NC(C)CN(C)C)c1sc(C)nc1C(F)(F)F (centres unmarked) [Compound 640] | 1.35^[a] | –
6 | CCOC(=O)C(C#N)=C(NC(C)C(N)=O)c1sc(C)nc1C(F)(F)F (centres unmarked) [Compound 641] | 1.96^[a] | –
7 | CCOC(=O)C(C#N)=C(NC(C)C(=O)NC)c1sc(C)nc1C(F)(F)F (centres unmarked) [Compound 642] | 2.07^[a] | –
8 | CCOC(=O)/C(C#N)=C(\NCC(C)N)c1sc(C)nc1C(F)(F)F (centres unmarked) [Compound 643] | 1.11^[a] | –
9 | CCOC(=O)C(C#N)=C(NC(C)C(N)=O)c1sccc1Cl (centres unmarked) [Compound 644] | 1.9^[a] | –
10 | CCOC(=O)C(C#N)=C(NC(C)C(=O)NC)c1sccc1Cl (centres unmarked) [Compound 645] | 2.08^[a] | –
11 | CCOC(=O)C(C#N)=C(NC(C)C(=O)NC)c1ccsc1I (centres unmarked) [Compound 646] | 2.07^[a] | –
12 | CCOC(=O)C(C#N)=C(NC(C)C(N)=O)c1ccsc1I (centres unmarked) [Compound 647] | 1.91^[a] | –
13 | CCOC(=O)C(C#N)=C(NC(C)CSC)c1cccnc1C (centres unmarked) [Compound 648] | – | Log P (pH 2.3): 2.2; Log P (pH 7.5): 2.44
14 | CCOC(=O)C(C#N)=C(NC(C)C(=O)OC)c1sccc1Br (centres unmarked) [Compound 649] | 2.96^[a] | –
15 | CCOC(=O)C(C#N)=C(NC(C(=O)OC)C(C)C)c1sccc1Br (centres unmarked) [Compound 650] | 3.67^[a] | –
16 | CCOC(=O)C(C#N)=C(NC(C)C(N)=O)c1sccc1Br (centres unmarked) [Compound 652] | 1.94^[a] | –
17 | CCOC(=O)C(C#N)=C(NC(C)C(=O)OC)c1sccc1C(F)(F)F (centres unmarked) [Compound 657] | 3.11^[a] | –
18 | CCOC(=O)C(C#N)=C(NC(C(=O)OC)C(C)C)c1sccc1C(F)(F)F (centres unmarked) [Compound 659] | 3.62^[a] | –
19 | COC(=O)C(C#N)=C(NC(C)C(=O)OC)c1sc(C)nc1C(F)(F)F (centres unmarked) [Compound 665] | 2.62^[a] | –
20 | COC(=O)C(C#N)=C(NC(C(=O)OC)C(C)C)c1sc(C)nc1C(F)(F)F (centres unmarked) [Compound 667] | 3.29^[a] | –

Row | SMILES | Log P (pH 2.7) | other results
21 | CCOC(=O)C(C#N)=C(NC(C)C(=O)OC)c1cn(C)nc1C(F)F (centres unmarked) [Compound 673] | 2.31^[a] | –
22 | CCOC(=O)C(C#N)=C(NC(C(=O)OC)C(C)C)c1cn(C)nc1C(F)F (centres unmarked) [Compound 675] | 2.84^[a] | –
23 | CCOC(=O)C(C#N)=C(NC(C)C(=O)OC)c1sc(C)nc1C(F)(F)F (centres unmarked) [Compound 680] | 2.94^[a] | –
24 | CCOC(=O)C(C#N)=C(NC(C(=O)OC)C(C)C)c1sc(C)nc1C(F)(F)F (centres unmarked) [Compound 682] | 3.64^[a] | –
25 | CCOC(=O)C(C#N)=C(NC(C)C(=O)Nc1ccc2ccccc2c1)c1cn(C)nc1C(F)F (centres unmarked) [Compound 683] | 3.31^[a] | –
26 | CCOC(=O)C(C#N)=C(NC(C)COc1c(C)cccc1C)c1cn(C)nc1C(F)F (centres unmarked) [Compound 684] | 3.96^[a] | –
27 | CCOC(=O)C(C#N)=C(NC(C)COC)c1cn(C)nc1C(F)F (centres unmarked) [Compound 685] | 2.41^[a] | –
28 | CCOC(=O)C(C#N)=C(NC(C)C(=O)OCC)c1cn(C)nc1C(F)F (centres unmarked) [Compound 686] | 2.62^[a] | –
29 | CCOC(=O)C(C#N)=C(NC(C)CSC)c1cccnc1OC (centres unmarked) [Compound 687] | – | Log P (pH 2.3): 2.96; Log P (pH 7.5): 2.95
30 | C=CC(COCc1ccccc1)NC(=C(C#N)C(=O)OCC)c1sccc1C(F)(F)F (centres unmarked) [Compound 688] | 4.36^[a] | –
31 | C=CC(COCc1ccccc1)NC(=C(C#N)C(=O)OCC)c1sccc1Br (centres unmarked) [Compound 689] | 4.31^[a] | –
32 | C=CC(COCc1ccccc1)NC(=C(C#N)C(=O)OC)c1sc(C)nc1C(F)(F)F (centres unmarked) [Compound 690] | 3.89^[a] | –
33 | C=CC(COCc1ccccc1)NC(=C(C#N)C(=O)OCC)c1cn(C)nc1C(F)F (centres unmarked) [Compound 691] | 3.51^[a] | –
34 | C=CC(COCc1ccccc1)NC(=C(C#N)C(=O)OCC)c1sc(C)nc1C(F)(F)F (centres unmarked) [Compound 692] | 4.21^[a] | –
35 | CCOC(=O)C(C#N)=C(NC(C)(C)C(=O)OC)c1sccc1Br [Compound 693] | 3.23^[a] | –
36 | CCOC(=O)C(C#N)=C(NC(C)(C)C(=O)OC)c1sccc1C(F)(F)F [Compound 694] | 3.37^[a] | –
37 | COC(=O)C(C#N)=C(NC(C)(C)C(=O)OC)c1sc(C)nc1C(F)(F)F [Compound 695] | 2.9^[a] | –
38 | CCOC(=O)C(C#N)=C(NC(C)(C)C(=O)OC)c1cn(C)nc1C(F)F [Compound 696] | 2.51^[a] | –
39 | CCOC(=O)C(C#N)=C(NC(C)(C)C(=O)OC)c1sc(C)nc1C(F)(F)F [Compound 697] | 3.23^[a] | –
40 | CCOC(=O)C(C#N)=C(NC(C)C(N)=O)c1nc(Cl)ccc1Cl (centres unmarked) [Compound 698] | 1.97^[a] | –

Row | SMILES | Log P (pH 2.7) | other results
41 | CCOC(=O)C(C#N)=C(NC(C)C(N)=O)c1ncc(Cl)cc1Cl (centres unmarked) [Compound 699] | 2.01^[a] | –
42 | CCOC(=O)C(C#N)=C(NC(C)(C)CSC)c1sccc1C(F)(F)F [Compound 700] | 3.8^[a] | –
43 | CCOC(=O)C(C#N)=C(NC(C)(C)CSC)c1sccc1Br [Compound 701] | 3.73^[a] | –
44 | COC(=O)C(C#N)=C(NC(C)(C)CSC)c1sc(C)nc1C(F)(F)F [Compound 702] | 3.27^[a] | –
45 | CCOC(=O)C(C#N)=C(NC(C)(C)CSC)c1cn(C)nc1C(F)F [Compound 703] | 2.84^[a] | –
46 | CCOC(=O)C(C#N)=C(NC(C)(C)CSC)c1sc(C)nc1C(F)(F)F [Compound 704] | 3.62^[a] | –
47 | CCOC(=O)C(C#N)=C(NC(C)C(N)=O)c1cccnc1C(F)(F)F (centres unmarked) [Compound 705] | 1.91^[a] | –
48 | CCOC(=O)C(C#N)=C(NC(C)C(=O)NC)c1cccnc1C(F)(F)F (centres unmarked) [Compound 706] | 2.05^[a] | –
49 | CCOC(=O)C(C#N)=C(NC(C)CN)c1sccc1Br (centres unmarked) [Compound 707] | 1.1^[a] | –
50 | CCOC(=O)C(C#N)=C(NC(C)C(N)=S)c1cccnc1Cl (centres unmarked) [Compound 708] | – | Log P (pH 7.5): 1.87
51 | CCOC(=O)C(C#N)=C(NC(C)C(N)=O)c1nc(SC)ncc1Br (centres unmarked) [Compound 709] | 2.13^[a] | –
52 | CCOC(=O)C(C#N)=C(NC(C(=O)OC)C(C)C)c1sc(Cl)nc1Cl (centres unmarked) [Compound 710] | 3.82^[a] | –
53 | CCOC(=O)C(C#N)=C(NC(C(=O)OC)C(C)C)c1cn(C)nc1OC (centres unmarked) [Compound 711] | 2.71^[a] | –
54 | CCOC(=O)C(C#N)=C(NC(C(=O)OC)C(C)C)c1cc(Cl)sc1Cl (centres unmarked) [Compound 712] | 4.14^[a] | –
55 | CCOC(=O)C(C#N)=C(NC(C(=O)OC)C(C)C)c1cn(C)nc1C(F)(F)F (centres unmarked) [Compound 713] | 3.09^[a] | –
56 | CCOC(=O)C(C#N)=C(NC(C)COC)c1ccsc1Br (centres unmarked) [Compound 714] | 3.21^[a] | –
57 | CCOC(=O)C(C#N)=C(NC(C(=O)OC)C(C)C)c1ccsc1Br (centres unmarked) [Compound 715] | 3.48^[a] | –
58 | CCOC(=O)C(C#N)=C(NC(C(=O)OC)C(C)C)c1ccsc1Br (centres unmarked) [Compound 716] | 3.71^[a] | –
59 | CCOC(=O)C(C#N)=C(NC(C)C(=O)Nc1ccc2ccccc2c1)c1ccsc1Br (centres unmarked) [Compound 717] | 3.94^[a] | –
60 | CCOC(=O)C(C#N)=C(NC(C)COc1c(C)cccc1C)c1ccsc1Br (centres unmarked) [Compound 718] | 4.86^[a] | –
